For assay [1], the target named is T1, MppR (Streptomyces hygroscopicus, UniProt Q643B8). The assay is described as follows: steady-state kinetics of aldol condensation. In kind it is biochemical. The conditions noted are these: co-substrate pyruvate; no saturation below the solubility limit.
Assay [2] addresses T1, MppR. Briefly: X-ray crystal structure, […] Å. In kind it is binding. The conditions noted are these: covalent; Schiff base with Lys156; 30 mM sodium pyruvate, 24 h soak.

The record followed here is article PMC3743547 (Biochemistry, 2013).

SMILES strings stand for the structures.

On to `O=Cc1c[nH]cn1` [compound 6, 4-imidazolecarboxaldehyde], for which the Michaelis-Menten constant (Km) at MppR [1] is > 50 mM.

Consider `CC(=O)C(=O)O` [pyruvate], for which the “X-ray crystal structure, 1.72 Å (crystal soak)” value at MppR [2] is reported as “resulting structure showed pyruvate covalently bound to Lys156 as the Schiff base”.

As usually defined, the Km is the concentration of substrate that gives half-maximal velocity.
